In patent US6855730B2, “3-methylidenyl-2-indolinone modulators of protein kinase” (Sugen, Inc., priority 1998, dated 2005):

Columns and labels:
[1] = target: T1, PDGFR-β (Homo sapiens, UniProt P09619); assay: Biochemical PDGFR assay (ELISA, PDGFR-β expressing NIH 3T3 cell lysate); conditions: read-out: bio PDGF IC50
T1 construct: host or cells: NIH 3T3
Source text: This assay measures the in vitro kinase activity of PDGFR using ELISA.
Unless otherwise noted, the preparation of working solution-of the following reagents is the same as that for the Biochemical EGFR assay, above. • 1. […] 28D4C10 monoclonal anti-PDGFR antibody (Biochemistry Lab, SUGEN, Inc.). • 3. PBS (Dulbecco's Phosphate-Buffered Saline, Gibco Catalog No. 450-1300EB) • 4. TBST Buffer. • 5. Blocking Buffer. • 6. PDGFR-β expressing NIH 3T3 cell lysate (Screening Lab, SUGEN, Inc.). • 7. TBS Buffer. • 8. TBS+10% DMSO. • 9. […] MnCl2. • 11. Kinase buffer phosphorylation mix.
• 12. NUNC 96-well V bottom polypropylene plates (Applied Scientific Cat. No. AS-72092). • 13. Ethylenediaminetetraacetic acid (EDTA). • 14. Rabbit polyclonal anti-phosphotyrosine serum (Biochemistry Lab, SUGEN, Inc.). • 15. Goat anti-rabbit IgG peroxidase conjugate (Biosource Cat. No. ALI0404). • 16. 2,2′-azino-bis(3-ethylbenzthiazoline-6-sulfonic acid) (ABTS, Sigma Cat. No. A-1888). • 17. Hydrogen peroxide 30% solution (Fisher Cat. No. H325). • 18. ABTS/H2O2. • 19. 0.2 M HCl.
Procedure • 1. Coat Corning 96 well ELISA plates with 0.5 μg 28D4C10 in 100 μl PBS per well, store overnight at 4° C. • 2. Remove unbound 28D4C10 from wells by inverting plate to remove liquid. Wash 1× with dH2O. Pat the plate on a paper towel to remove excess liquid. • 3. Add 150 μl of Blocking Buffer to each well. Incubate for 30 min. at room temperature with shaking. • 4. Wash plate 3× with deionized water, then once with TBST. Pat plate on a paper towel to remove excess liquid and bubbles. • 5. Dilute lysate in HNTG (10 μg lysate/100 μl HNTG) • 6. Add 100 μl of diluted lysate to each well. Shake at room temperature for 60 min. • 7. Wash plates as described in 4, above. • 8. Add 80 μl working kinase buffer mix to ELISA plate containing captured PDGFR. • 9. Dilute test compound 1:10 in TBS in 96-well polypropylene plates (i.e., 10 μl compound+90 μl TBS). • 10. Add 10 μl diluted test compound to ELISA plate. […] Incubate for 30 minutes while shaking at room temperature. • 12. Add 10 μl ATP directly to all wells except negative control well (final well volume should be approximately 100 μl with 20 μM ATP in each well.) Incubate 30 minutes while shaking. • 13. After 30 minutes, stop reaction by adding 10 μl of 200 mM EDTA (pH 8.0) to each well. • 14. Wash 4× with deionized water, twice with TBST. • 15. Add 100 μl anti-phosphotyrosine (1:3000 dilution in TBST) per well. Incubate 30-45 min. at room temperature, with shaking. • 16. Wash as described in 4, above. • 17. Add 100 μl Biosource Goat anti-rabbit IgG peroxidase conjugate (1:2000 dilution in TBST) to each well. Incubate 30 min. at room temperature, with shaking. • 18. Wash as described in 4, above. • 19. Add 100 μl of ABTS/H2O2 solution to each well. • 20. Incubate 10 to 30 minutes with shaking. Remove any bubbles. • 21. If necessary stop reaction with the addition of 100 μl 0.2 M HCl per well. • 22. Read assay on Dynatech MR7000 ELISA reader: test filter: 410 nM, reference filter: 630 nM.

[2] = target: Myc-GyrB-FGFR fusion protein (Homo sapiens, UniProt P11362); assay: Biochemical FGFR assay (ELISA); conditions: read-out: bio fgfR1 IC50
Sequence of Myc-GyrB-FGFR fusion protein (P11362 478-767 limits assumed): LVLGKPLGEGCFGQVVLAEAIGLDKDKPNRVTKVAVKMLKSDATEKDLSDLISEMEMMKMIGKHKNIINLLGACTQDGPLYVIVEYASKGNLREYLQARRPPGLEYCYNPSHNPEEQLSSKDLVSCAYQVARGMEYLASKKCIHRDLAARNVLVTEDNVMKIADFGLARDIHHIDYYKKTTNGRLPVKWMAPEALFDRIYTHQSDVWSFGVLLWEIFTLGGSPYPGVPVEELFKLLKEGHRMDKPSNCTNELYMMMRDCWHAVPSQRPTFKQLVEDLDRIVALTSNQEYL

[3] = target: T2, chimeric receptor containing the EGFR extracellular domain and intracellular HER2 kinase domain (Homo sapiens, UniProt P04626); assay: EGF Receptor-HER2 chimeric receptor assay in whole cells (ELISA); format: cell-based; conditions: read-out: HER-2 kinase IC50
T2 construct: fused on or other part: EGFR ectodomain + HER2 intracellular part, ATP-site indolinones: HER2's kinase
T2 sequence (P04626 720-1255 limits assumed, change not shown): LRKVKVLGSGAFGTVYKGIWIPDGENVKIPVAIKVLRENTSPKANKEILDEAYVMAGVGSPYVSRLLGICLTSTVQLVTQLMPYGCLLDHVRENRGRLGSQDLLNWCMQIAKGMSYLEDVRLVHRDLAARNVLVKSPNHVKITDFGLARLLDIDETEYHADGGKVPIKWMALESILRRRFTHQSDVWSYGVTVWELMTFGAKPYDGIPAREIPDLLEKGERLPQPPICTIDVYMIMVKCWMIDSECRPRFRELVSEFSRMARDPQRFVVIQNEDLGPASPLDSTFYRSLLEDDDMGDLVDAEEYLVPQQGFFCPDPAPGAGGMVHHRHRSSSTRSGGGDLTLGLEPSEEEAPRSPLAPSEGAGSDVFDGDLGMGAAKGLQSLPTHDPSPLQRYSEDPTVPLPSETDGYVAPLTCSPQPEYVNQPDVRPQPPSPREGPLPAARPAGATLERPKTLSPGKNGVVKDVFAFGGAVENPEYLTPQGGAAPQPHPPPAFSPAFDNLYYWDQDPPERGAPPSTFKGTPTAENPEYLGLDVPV
Description: EGF Receptor-HER2 Chimeric Receptor Assay In Whole Cells.
HER2 kinase activity in whole EGFR-NIH3T3 cells are measured as described below:
• a. […] 05-101 (UBI) (a monoclonal antibody recognizing an EGFR extracellular domain). • c. Anti-phosphotyrosine antibody (anti-Ptyr) (polyclonal) (see, Fendley, et al., supra). • d. Detection antibody: Goat anti-rabbit IgG horseradish peroxidase conjugate, TAGO, Inc., Burlingame, Calif. • e. TBST buffer:
• h. Stock reagents of:
Pre-coat ELISA Plate • 1. […] Coated plates are good for up to 10 days when stored at 4° C. • 2. On day of use, remove coating buffer and replace with 100 μl blocking buffer (5% Carnation Instant Non-Fat Dry Milk in PBS). Incubate the plate, shaking, at room temperature (about 23° C. to 25° C.) for 30 minutes. Just prior to use, remove blocking buffer and wash plate 4 times with TBST buffer.
Seeding Cells • 1. An NIH3T3 cell line overexpressing a chimeric receptor containing the EGFR extracellular domain and intracellular HER2 kinase domain can be used for this assay. • 2. Choose dishes having 80-90% confluence for the experiment. Trypsinize cells and stop reaction by adding 10% fetal bovine serum. Suspend cells in DMEM medium (10% CS DMEM medium) and centrifuge once at 1500 rpm, at room temperature for 5 minutes. • 3. Resuspend cells in seeding medium (DMEM, 0.5% bovine serum), and count the cells using trypan blue. Viability above 90% is acceptable. Seed cells in DMEM medium (0.5% bovine serum) at a density of 10,000 cells per well, 100 μl per well, in a 96 well microtiter plate. Incubate seeded cells in 5% CO2. at 37° C. for about 40 hours.
Assay Procedures • 1. Check seeded cells for contamination using an inverted microscope. Dilute drug stock (10 mg/ml in DMSO) 1:10 in DMEM medium, then transfer 5 μl to a […] well for a final drug dilution of 1:200 and a final DMSO concentration of 1%. Control wells receive DMSO alone. Incubate in 5% CO2 at 37° C. for two hours. • 2. Prepare EGF ligand: dilute stock EGF in DMEM so that upon transfer of 10 μl dilute EGF (1:12 dilution), 100 nM final concentration is attained. • 3. Prepare fresh HNTG* sufficient for 100 μl per well, and place on ice.
• 4. After 120 minutes incubation with drug, add prepared […] ligand to cells, 10 μl per well, to a final concentration of 100 nM. Control wells receive DMEM alone. Incubate with shaking, at room temperature, for 5 minutes. • 5. Remove drug, EGF, and DMEM. Wash cells twice with PBS. Transfer HNTG* to cells, 100 μl per well. Place on ice for 5 minutes. Meanwhile, remove blocking buffer from other ELISA plate and wash with TBST as described above. • 6. With a pipette tip securely fitted to a micropipettor, scrape cells from plate and homogenize cell material by repeatedly aspirating and dispensing the HNTG* lysis buffer. Transfer lysate to a coated, blocked, and washed ELISA plate. Incubate shaking at room temperature for one hour. • 7. Remove lysate and wash 4 times with TBST. Transfer freshly diluted anti-Ptyr antibody to ELISA plate at 100 μl per well. Incubate shaking at room temperature for 30 minutes in the presence of the anti-Ptyr antiserum (1:3000 dilution in TBST). • 8. Remove the anti-Ptyr antibody and wash 4 times with TBST. Transfer the freshly diluted TAGO anti-rabbit IgG antibody to the ELISA plate at 100 μl per well. Incubate shaking at room temperature for 30 minutes (anti-rabbit IgG antibody: 1:3000 dilution in TBST). • 9. Remove TAGO detection antibody and wash 4 times with TBST. Transfer freshly prepared ABTS/H2O2 solution to ELISA plate, 100 μl per well. Incubate shaking at room temperature for 20 minutes. (ABTS/H2O2 solution: 1.0 μl 30% H2O2 in 10 ml ABTS stock). • 10. Stop reaction by adding 50 μl 5N H2SO4 (optional), and determine O.D. at 410 nm. • 11. The maximal phosphotyrosine signal is determined by subtracting the value of the negative controls from the positive controls. […]

[4] = target: T3, flkGST (Homo sapiens, UniProt P35968); assay: bio flkGST assay; format: biochemical
T3 construct: GST
T3 sequence (P35968 786-1356 limits assumed): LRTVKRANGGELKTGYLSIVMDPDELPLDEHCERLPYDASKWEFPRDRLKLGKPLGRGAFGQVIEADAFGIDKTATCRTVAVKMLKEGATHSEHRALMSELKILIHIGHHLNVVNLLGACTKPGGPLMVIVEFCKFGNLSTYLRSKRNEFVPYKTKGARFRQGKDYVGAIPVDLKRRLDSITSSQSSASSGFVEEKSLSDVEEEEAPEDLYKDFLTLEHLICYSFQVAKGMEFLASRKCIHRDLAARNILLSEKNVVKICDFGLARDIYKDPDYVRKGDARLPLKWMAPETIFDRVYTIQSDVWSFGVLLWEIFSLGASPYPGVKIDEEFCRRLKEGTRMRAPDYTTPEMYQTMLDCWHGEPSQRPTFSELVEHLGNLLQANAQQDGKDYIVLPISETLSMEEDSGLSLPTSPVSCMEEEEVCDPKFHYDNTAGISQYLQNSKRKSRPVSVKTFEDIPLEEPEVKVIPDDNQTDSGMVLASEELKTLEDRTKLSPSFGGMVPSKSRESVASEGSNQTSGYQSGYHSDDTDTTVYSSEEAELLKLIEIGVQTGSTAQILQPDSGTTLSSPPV

T1 sequence (P09619 33-1106): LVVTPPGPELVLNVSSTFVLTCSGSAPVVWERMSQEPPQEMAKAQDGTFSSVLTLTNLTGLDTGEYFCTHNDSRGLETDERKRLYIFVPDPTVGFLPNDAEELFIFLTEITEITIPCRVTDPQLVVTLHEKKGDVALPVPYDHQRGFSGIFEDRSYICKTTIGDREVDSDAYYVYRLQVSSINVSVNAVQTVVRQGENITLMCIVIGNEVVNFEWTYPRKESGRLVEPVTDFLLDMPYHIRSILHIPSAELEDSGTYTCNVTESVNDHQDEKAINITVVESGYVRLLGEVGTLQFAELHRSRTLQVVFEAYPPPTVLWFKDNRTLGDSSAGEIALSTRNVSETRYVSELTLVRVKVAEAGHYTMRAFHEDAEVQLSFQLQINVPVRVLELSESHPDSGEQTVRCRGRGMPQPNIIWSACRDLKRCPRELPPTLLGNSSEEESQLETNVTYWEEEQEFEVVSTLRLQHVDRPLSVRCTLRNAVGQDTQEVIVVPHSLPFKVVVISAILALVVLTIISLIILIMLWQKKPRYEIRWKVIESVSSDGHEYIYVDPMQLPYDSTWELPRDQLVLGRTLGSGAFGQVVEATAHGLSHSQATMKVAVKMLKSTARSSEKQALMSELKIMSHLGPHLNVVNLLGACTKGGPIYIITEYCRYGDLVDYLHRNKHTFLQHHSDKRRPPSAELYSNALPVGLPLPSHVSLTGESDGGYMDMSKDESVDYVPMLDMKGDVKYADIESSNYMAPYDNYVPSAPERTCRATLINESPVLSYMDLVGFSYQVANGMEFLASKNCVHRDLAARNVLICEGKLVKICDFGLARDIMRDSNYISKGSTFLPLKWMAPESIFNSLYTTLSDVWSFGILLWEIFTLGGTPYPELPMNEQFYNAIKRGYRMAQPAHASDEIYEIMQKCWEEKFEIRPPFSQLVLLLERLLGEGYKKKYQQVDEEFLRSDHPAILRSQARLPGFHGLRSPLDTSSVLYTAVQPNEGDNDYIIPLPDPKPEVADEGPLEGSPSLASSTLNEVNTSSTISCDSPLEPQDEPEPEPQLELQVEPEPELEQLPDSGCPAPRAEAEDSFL

SMILES | IC50 [1] [µM] | IC50 [2] [µM] | IC50 [3] [µM] | IC50 [4] [µM]
O=C1Nc2ccccc2/C1=C/c1cc2ccccc2[nH]1 [Example 163, 3-(1H-Indol-2-ylmethylene)-1,3-dihydro-indol-2-one] | > 100 | > 20 | – | –
CCOC(=O)c1[nH]c(/C=C2\C(=O)Nc3ccccc32)c(CCC(=O)O)c1C [Example 117, 4-(2-Carboxyethyl)-3-methyl-5-(2-oxo-1,2-dihydroindol-3-ylidenemethyl)-1H-pyrrole-2-carboxylic acid ethyl ester] | > 100 | > 20 | – | 13.5
Cc1ccc2c(c1)/C(=C/c1[nH]c3ccccc3c1C)C(=O)N2 [Example 152, 5-Methyl-3-(3-methyl-1H-indol-2-ylmethylene)-1,3-dihydro-indol-2-one] | – | > 20 | > 100 | –
NS(=O)(=O)c1ccc2c(c1)/C(=C/c1cc3ccccc3[nH]1)C(=O)N2 [Example 159, 3-(1H-Indol-2-ylmethylene)-2-oxo-2,3-dihydro-1H-indole-5-sulfonic acid amide] | 74.1 | > 20 | – | 2.87
O=C1Nc2cc(Cl)ccc2/C1=C/c1cc2ccccc2[nH]1 [Example 162, 6-Chloro-3-(1H-indol-2-ylmethylene)-1,3-dihydro-indol-2-one] | 8.02 | > 20 | – | –
O=C1Nc2ccc(Cl)cc2/C1=C/c1cc2ccccc2[nH]1 [Example 164, 5-Chloro-3-(1H-indol-2-ylmethylene)-1,3-dihydro-indol-2-one] | > 100 | > 20 | > 100 | –
Cc1c(/C=C2\C(=O)Nc3ccc(S(N)(=O)=O)cc32)[nH]c2ccccc12 [Example 153, 3-(3-Methyl-1H-indol-2-ylmethylene)-2-oxo-2,3-dihydro-1H-indole-5-sulfonic acid amide] | > 100 | > 20 | > 100 | –
CCOC(=O)c1c(C)[nH]c(/C=C2\C(=O)Nc3ccc(OC)cc32)c1CCCN1CCN(C)CC1 [Example 122, 5-(5-Methoxy-2-oxo-1,2-dihydroindol-3-ylidenemethyl)-2-methyl-4-[3-(4-methylpiperazin-1-yl)-propyl]-1h-pyrrole-3-carboxylic acid ethyl ester] | 2.13 | – | – | 0.51

Second part, the compound after the results:

IC50 [1] [µM] | IC50 [2] [µM] | IC50 [3] [µM] | IC50 [4] [µM] | SMILES
> 100 | > 20 | > 100 | – | CC(=O)c1ccc2c(c1)C(=Cc1[nH]c3ccccc3c1C)C(=O)N2 [Example 157, 5-Acetyl-3-(3-methyl-1H-indol-2-ylmethylene)-1,3-dihydroindol-2-one]
63.3 | – | – | 14.8 | CCOC(=O)c1c(C)[nH]c(/C=C2\C(=O)Nc3ccc(S(=O)(=O)NC)cc32)c1CCCN1CCCC1 [Example 126, 2-Methyl-5-(5-methylsulfamoyl-2-oxo-1,2-dihydroindol-3-ylidenemethyl)-4-(3-pyrrolidin-1-ylpropyl)-1H-pyrrole-3-carboxylic acid ethyl ester]
26.7 | – | – | 1 | CCOC(=O)c1c(C)[nH]c(/C=C2\C(=O)Nc3ccc(OC)cc32)c1CCCN1CCOCC1 [Example 121, 5-(5-Methoxy-2-oxo-1,2-dihydroindol-3-ylidenemethyl)-2-methyl-4-(3-morpholin-4-ylpropyl)-1H-pyrrole-3-carboxylic acid ethyl ester]
> 100 | > 20 | – | – | Cc1c(/C=C2\C(=O)Nc3ccc(Cl)cc32)[nH]c2ccccc12 [Example 168, 5-Chloro-3-(3-methyl-1H-indol-2-ylmethylene)-1,3-dihydro-indol-2-one]
> 100 | > 20 | – | – | Cc1c(/C=C2\C(=O)Nc3ccccc32)[nH]c2ccccc12 [Example 167, 3-(3-Methyl-1H-indol-2-ylmethylene)-1,3-dihydro-indol-2-one]
2.32 | – | – | 12.9 | CCOC(=O)c1c(C)[nH]c(/C=C2\C(=O)Nc3ccc(S(N)(=O)=O)cc32)c1CCCN1CCCC1 [Example 130, 2-Methyl-5-(2-oxo-5-sulfamoyl-1,2-dihydroindol-3-ylidenemethyl)-4-(3-pyrrolidin-1-ylpropyl)-1H-pyrrole-3-carboxylic acid ethyl ester]
